From publication PMC6544338, “Comparative biophysical characterization: A screening tool for acetylcholinesterase inhibitors” (PLoS ONE, 2019)
Structures can show the parent of a compound that is named as a salt. Where two headings read alike, the source gives them in different places.

Experiments:
immobilized AChE [1] = target: T1, immobilized AChE (Electrophorus electricus, UniProt O42275); assay: biochemical; assay type: binding; conditions: for Kd / Ka1 / Kd1: 25°C
T1 construct: purchased Sigma (St. Louis, MO, USA)
Protocol: (§1) The protocol was followed with some modifications for enzyme immobilization, scouting and screening. SPR interactions were performed using a Biacore X100 optical biosensor (GE Healthcare Life Sciences, Bangalore, India) at 25°C. SPR analysis was carried out in PBS (200 mM, pH 7.7) from the analyte stock solutions, working solutions were diluted before passing on to the sensor surface. Data collection was done with the help of Biacore control software ver 2.0.2 Sets of experiments were carried out by monitoring change in the refractive index as a function of time under constant flow conditions. The relative amount of inhibitor bound to the AChE was determined by measuring the net increase in the refractive index over time compared to buffer as a control. During each run, there is an inline subtraction of the reference surface. Change is reported regarding response units (RU). The surface was washed with 5 cycles of running buffer (PBS) before next analytes.
(§2) As per pH scouting studies, AChE enzyme (100μg) was dissolved in 100 mM sodium acetate buffer pH 4.5 and was immobilized to the CM5 sensor chip by using the amine coupling method. The flow rate was kept constant during immobilization at 10 μlmin^-1, the surface of flow cell was activated by 1:1 mixture of 100 mM EDC and 100 mM NHS (both dissolved in water) for 7 min. AChE was injected for 7 min, and residual activated carboxymethyl groups were blocked on the sensor surface by 7 min injection of 1M ethanolamine, pH 8.5. In this particular study, flow cell 1 was blank immobilized (without protein) and used as a reference. Inline and double referencing was done for the buffer RU compensation.
(§3) Here the model describes this competitive situation and returns two sets of rate constants, one for each reaction taking into consideration two different analytes. The same buffer was used as running buffer. The constant flow rate was maintained throughout the kinetics (45 μlmin^-1), contact time and dissociation time was kept at 120 second (s). 10 mM glycine pH 3.0 for the time period of 30 s was used for regeneration. The experiments were carried at different concentrations of inhibitors.
(§4) The analysis of data was carried out with X100 evaluation software ver 2.0.2 and fitted to two state fit for individual molecules and for competitive experiments a heterogeneous analyte binding model.

immobilized AChE [2] = target: T1, immobilized AChE; assay: biochemical; assay type: binding
Protocol: as §1, §2, §3, §4
Likewise, competitive experiments between different pairs was run by mixing 1:1 ratio of molecules and was fit to heterogeneous analyte model were studied. These experiments are helpful for determining the kinetics of a small molecule analyte in competition with other. Response contributions from both analytes are taken into account by considering molecular weight and concentrations of analytes. For competition binding experiments, pairing was done based on substrate-inhibitor and inhibitor-inhibitor interactions. […] Finally, naturally occurring crocin was also tested due to reports in the literature as a brain tonic for the Alzheimer's.

AChE [3] = target: T2, AChE (Electrophorus electricus, UniProt O42275); assay: Far-UV circular dichroism of AChE with small molecules (secondary structure composition); conditions: for change in secondary structure of AChE compared to control enzyme: CD, far-UV; for Turns of AChE in presence of the molecule / α helix of AChE in presence of the molecule / Random of AChE in presence of the molecule / β sheets of AChE in presence of the molecule: single molecule; for Turns of AChE in presence of the molecule: AChE alone 0; for α helix of AChE in presence of the molecule: AChE alone 3.6±0.012; for Random of AChE in presence of the molecule: AChE alone 44.2±0.46; for β sheets of AChE in presence of the molecule: AChE alone 52.3±0.6
T2 construct: purchased Sigma (St. Louis, MO, USA)
Protocol: Protein solutions 0.5 milligram per milliliter (mgml^-1) was prepared in 10 mM PBS at pH 7.7. Scans were performed at room temperature using 0.1 cm path length quartz cuvette with 8 s differential integration time at a scan rate of 100 nano meter per minute (nm min^-1). The CD spectrum of AChE enzyme individually and with different small molecules, also in combination was recorded. All spectra resulted from averaging three scans were corrected from the buffer blank. Results were expressed as molar ellipticity (°cm^2 dmol^-1) based on a mean amino acid residue weight (MRW) 110 Da for AChE. The molar ellipticity was determined as [θ obs] = {100 × (MRW) × θobs/cl}, where θ is the observed ellipticity in degrees at a given wavelength, c is the protein concentration in mgml^-1, and l is the path length in cm.
The relative percentages of the secondary structure elements were estimated in triplicates using Manager Suite software.

AChE [4] = target: T2, AChE; assay: Fluorescence spectral studies of AChE incubated with molecules; conditions: excitation 365 nm, control emission maxima […] nm, molecules at IC50 concentration, 10 min
Protocol: The fluorescence intensities were recorded using 0.5 mgml^-1 protein concentration with an excitation wavelength of 365 nm and an emission wavelength of 400–700 nm with slit widths of 20 nm using MY14410002 fluorescence spectrophotometer (Agilent Technologies, USA) at 25°C. Protein solutions of 0.5 mgml^-1 were prepared in 10 mM PBS at pH 7.7. Scans were performed at room temperature using a 1 cm path length quartz cuvette with 1 s differential integration time at a scan rate of 600 nm min^-1. […] The subsequent changes in fluorescence were measured at this wavelength.
Fig 21 a) Intrinsic fluorescence spectra of the AChE incubated with molecules. […] Scans were performed at 37°C using a 1 cm path length quartz cuvette with 1 s differential integration time at a scan rate of 600 nm min^-1. The excitation wavelength was 365 nm and emission wavelength was in the range of 400–700 nm. b) Intrinsic fluorescence spectra of the AChE incubated with molecules. […] Scans were performed at 37° C using a 1 cm path length quartz cuvette with 1 s differential integration time at a scan rate of 600 nm min^-1. The excitation wavelength was 365 nm and the emission wavelength was in the range of 400–700 nm.

[5] = target: T3, acetylcholinesterase from Electrophorus electricus (Electric eel) (Electrophorus electricus, UniProt O42275); assay: Inhibition assay for acetylcholinesterase activity (modified Ellman, ATCI/DTNB, 412 nm); assay type: biochemical
T3 construct: purchased Sigma (St. Louis, MO, USA)
Protocol: The assay was performed with some modifications of Ellman et al (1961). […] The hydrolysis was monitored by the formation of yellow color (5-thio-2-nitrobenzoate anion) and the absorbance was measured at 412 nm by using spectrophotometer (UV-1800, Shimadzu, Japan).
The inhibitory activity assay was carried out with slight modifications. […] The inhibitory percentage of AChE was calculated as follows:
%inhibition = 100[A − B] − [C − D]/[A − B]
A is the OD without test substance, B is the OD without test substance and AChE, C is the OD with the test substance, D is the OD at 412 nm with the test substance and without AChE.
The relative percentage inhibition were estimated in triplicates and values were expressed as mean ± SEM (n = 3).

AChE [6] = conditions: cited from earlier work
[7] = affinity fit, read-out: KD Affinity
[8] = two-state model, read-out: KD Kinetics
[9] = pair crocin (molecule 1) and ATCI (molecule 2), 1:1

T2 sequence (O42275 24-633): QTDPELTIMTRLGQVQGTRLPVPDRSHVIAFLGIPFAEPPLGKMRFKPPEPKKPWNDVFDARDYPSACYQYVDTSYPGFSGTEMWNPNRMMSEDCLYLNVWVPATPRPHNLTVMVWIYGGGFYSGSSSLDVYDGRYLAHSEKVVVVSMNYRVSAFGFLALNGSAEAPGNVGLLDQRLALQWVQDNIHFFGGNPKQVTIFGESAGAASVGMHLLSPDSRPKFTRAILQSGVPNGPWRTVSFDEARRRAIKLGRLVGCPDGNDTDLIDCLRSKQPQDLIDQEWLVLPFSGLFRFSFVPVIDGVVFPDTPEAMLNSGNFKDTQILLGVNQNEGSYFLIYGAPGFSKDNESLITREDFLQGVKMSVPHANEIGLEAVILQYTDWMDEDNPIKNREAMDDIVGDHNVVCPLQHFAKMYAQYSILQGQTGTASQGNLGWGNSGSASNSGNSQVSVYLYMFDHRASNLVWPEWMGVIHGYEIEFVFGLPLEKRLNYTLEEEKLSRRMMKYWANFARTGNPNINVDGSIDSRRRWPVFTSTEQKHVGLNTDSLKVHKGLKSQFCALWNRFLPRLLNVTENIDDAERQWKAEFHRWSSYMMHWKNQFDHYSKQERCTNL
T3 sequence (O42275 24-633): as above
T1 sequence (O42275 24-633): as above

SMILES	Ka2 (immobilized AChE [1])	Kd (immobilized AChE [1]; [7])	Ka1 (immobilized AChE [1]; two-state model)	Kd1 (immobilized AChE [1]; two-state model)	Kd (immobilized AChE [1]; [8])	change in secondary structure of AChE compared to control enzyme (AChE [3])	Turns of AChE in presence of the molecule (AChE [3])	α helix of AChE in presence of the molecule (AChE [3])	Random of AChE in presence of the molecule (AChE [3])	β sheets of AChE in presence of the molecule (AChE [3])	change in fluorescence emission of AChE compared to control enzyme (AChE [4])	IC50 [5]	Kd2 (immobilized AChE [1])	also measured
CC(=O)SCC[N+](C)(C)C.[I-] [ATCI, acetylthiocholine iodide, reference compound]	12440 ± 9.6e-05 s⁻¹	2510 µM	76590 ± 12000 M⁻¹ s⁻¹	0.4167 ± 0.13 s⁻¹	2.23 µM	increase in α-helix and a decline in β-sheets	0%	5.9±0.035%	42.8±0.39%	51.3±0.70%	no change			Molecule 2 ka2 (immobilized AChE [2]): 92910 ± 43000 M⁻¹ s⁻¹; Molecule 2 ka2 (immobilized AChE [2]; [9]): 139500 ± 19000 M⁻¹ s⁻¹; Molecule 2 kd2 (immobilized AChE [2]; [9]): 0.06452 ± 0.0034 s⁻¹; Molecule 2 ka2 (immobilized AChE [2]; pair tannic acid (molecule 1) and ATCI (molecule 2), 1:1): 1.529e+06 ± 3.4e+06 M⁻¹ s⁻¹; Kd (immobilized AChE [2]; pair tannic acid (molecule 1) and ATCI (molecule 2), 1:1, read-out: Molecule 2 KD): 0.00016 µM; Kd (immobilized AChE [2]; read-out: Molecule 2 KD): 0.00989 µM
Cn1c(=O)c2c(ncn2C)n(C)c1=O [Caffeine, caffeine, reference compound]												380 ± 15 µM		Kd (immobilized AChE [1]; KD Affinity, affinity fit): 7700 µM; Kd (immobilized AChE [1]; KD Kinetics, two-state model): 17.4 µM
C[N+](C)(C)CCOC(N)=O [Carbachol, carbachol, reference compound]	0.001509±2.6×10^−4 1/s	1150 µM	101000 ± 9700 M⁻¹ s⁻¹	0.05155 ± 0.0041 s⁻¹	0.236 µM	increase in α-helix and a decline in β-sheets	2.6±0.016%	4.0±0.02%	42.4±0.38%	51.0±0.69%	no change	210 ± 15 µM	0.001298±1.1×10^−4 1/s	
O.Oc1cc(O)c2c(c1)O[C@H](c1ccc(O)c(O)c1)[C@@H](O)C2 [Catechin hydrate, catechin hydrate]	0.0158±7.1×10^−4 1/s	738 µM	76.33 ± 3.4 M⁻¹ s⁻¹	0.06336 ± 0.0042 s⁻¹	173 µM		0%	10±0.06%	41±0.29%	49±0.67%	redshift		0.004173±1.1×10^−4 1/s	IC50 ([5]; […] ATCI, PBS 200 mM pH 7.7, 37°C, mean ± SEM (n = 3), read-out: IC50): 90 ± 1 µM
CC(/C=C/C=C(\C)C(=O)O[C@@H]1O[C@H](CO[C@@H]2O[C@H](CO)[C@@H](O)[C@H](O)[C@H]2O)[C@@H](O)[C@H](O)[C@H]1O)=C\C=C\C=C(C)\C=C\C=C(/C)C(=O)O[C@@H]1O[C@H](CO[C@@H]2O[C@H](CO)[C@@H](O)[C@H](O)[C@H]2O)[C@@H](O)[C@H](O)[C@H]1O [Crocin, crocin]	0.003559±9.4×10^−5 1/s	475 µM	601700 ± 6700 M⁻¹ s⁻¹	472 ± 5.2 s⁻¹	470 µM		0%	5.7±0.042%	43.8±0.41%	50.5±0.74%	redshift	920 ± 230 µM	0.005325±1.5×10^−4 1/s	Kd (immobilized AChE [2]): 6020 µM; Molecule 2 ka2 (immobilized AChE [2]): 1.010 ± 0.11 M⁻¹ s⁻¹; Molecule 2 kd2 (immobilized AChE [2]): 0.006083±1.1×10^−4 1/s; Molecule 1 ka1 (immobilized AChE [2]; [9]): 3281±5.8×10^2 1/Ms; Molecule 1 kd1 (immobilized AChE [2]; [9]): 0.01684±8.5×10^−4 1/s
O[C@H]1[C@H]2c3cc4c(cc3CN3CCC(=C[C@@H]1O)[C@H]23)OCO4 [Lycorine hydrochloride, lycorine hydrochloride]			131.5 ± 6.3 M⁻¹ s⁻¹	0.3564 ± 0.011 s⁻¹		increase of α-helix	0%	7.2±0.045%	41.6±0.34%	51.2±0.72%	increase in the intensity at 415 nm		0.02658 ± 0.0061 s⁻¹	
O=c1c(O)c(-c2ccc(O)c(O)c2)oc2cc(O)cc(O)c12 [Quercetin, quercetin]	0.006822±3.4×10^−4 1/s		117.6 ± 4.3 M⁻¹ s⁻¹	0.05923 ± 0.0028 s⁻¹		reduction in α-helix with an increase in β-sheets	1.0±0.006%	3.1±0.010%	42.8±0.39%	53.2±0.75%	redshift		0.004964±2.1×10^−4 1/s	
C[C@@H]1O[C@@H](OC[C@H]2O[C@@H](Oc3c(-c4ccc(O)c(O)c4)oc4cc(O)cc(O)c4c3=O)[C@H](O)[C@@H](O)[C@@H]2O)[C@H](O)[C@H](O)[C@H]1O [Rutin hydrate, rutin hydrate]	0.004468±1.6×10^−4 1/s	1110 µM	11.33 ± 0.25 M⁻¹ s⁻¹	0.04254 ± 0.0013 s⁻¹	1180 µM		0%	8.8±0.056%	40.7±0.27%	50.5±0.72%	redshift	1900 ± 90 µM	0.002058±1.6×10^−4 1/s	
O.Oc1cc(O)c2c(c1)O[C@H](c1ccc(O)c(O)c1)[C@@H](O)C2 [catechin]														IC50 (AChE [6]; Catechin isolated from Dasiphora fruticosa, read-out: IC50): 1040 µM; IC50 (AChE [6]; catechin isolated from Eugenia dysenterica): 42.39 µg/mL
